One molecule from patent US20120114706A1, “Endorphin Therapy Compositions and Methods of Use Thereof” (priority 2008, published 2012) can be followed below.

Holding throughout (assay type): in vivo, rat
Assay [1] relates to MADB106 cells. The experiment in a line: MADB106 lung metastasis / lung tumor retention. The settings on record: naloxone 1 mg/kg every 12 hours, 3 times. On the procedure: A method for lung metastasis was adapted using MADB106 breast cancer cells, a NK-sensitive cell line widely used for lung metastasis study. Animals were anesthetized, and 100,000/0.2 ml/rat of MADB106 cells suspended in media were inoculated into jugular vein. After 4˜6 weeks, 70˜80% of inoculated animals developed tumor at the position of lung and/or neck, where the tumor cells were inoculated into the jugular vein.
30 female Fischer rats were implanted with control, cAMP (10 μM) or cAMP (5 μM)+PACAP (5 μM) nanospheres into 3rd ventricle. 2 weeks later, half of the animals were randomly assigned to treatment with Naloxone (1 mg/kg body every 12 hours) for 3 times. After the second injection of Naloxone, animals were anesthetized and inoculated with 100,000/0.2 ml/rat MADB106 cells. 2 months later, animals were sacrificed, and lungs were fixed and sectioned for histology diagnosis.
MADB106 cells, a Fischer 344 rat mammary adenocarcinoma cell line maintained in DMEM containing 10% fetal calf serum, was used. Female Fischer-344 rats were transplanted with BEP cell transplants or control cell transplants at 50 days of age. After about 2 weeks, these PVN cell-transplanted rats were inoculated with MADB106 tumor cells (100,000 cells/0.2 mL/rat) into jugular vein under sodium Nembutal solution (50 mg/kg) anesthesia. […]

Assay [2] concerns MADB106 cells. Put plainly: Pharmacologic modification of autonomic influence on immune system and lung metastasis. As for the experimental part:
48 β-EP implanted (SC) male Fischer rats and 48 control (C) male Fischer rats were divided into 8 groups, treated with saline, Naloxone (10 mg/kg body weight), Metaproterenol (MP, 0.8 mg/kg body weight), or Methyllycaconitine (MLA, 2.5 mg/kg body weight), respectively. Animals were treated with drugs for 8 days. In the second day of drug injection, animals were inoculated with MADB106 cells (100,000/0.2 ml/rat). 24 hours after tumor cell inoculation, blood was collected by orbital puncture. Plasma was collected, and PBMCs were separated for migration assay and NK cytolytic assay. 7 days after tumor inoculation, blood was taken again by orbital puncture. Plasma was collected, and PBMCs were separated for migration assay and T cell cytolytic assay. After 6 weeks, animals were sacrificed, and brains, spleens and blood were frozen. Lungs were fixed in formalin and processed to H&E staining. […] However, 7 days after tumor inoculation, there isn't a clear pattern of T cell cytolytic activity and macrophage migration activity between groups (FIGS. 30B and 30D).
It was hypothesized that the beneficial effect of BEP neuron transplants on immune function is regulated through autonomic nervous system, and that central BEP modulate peripheral immune function by inhibiting the sympathetic activity and activating the parasympathetic activity. Metaproterenol (MET) is an agonist for β-receptors, which are a class of G protein-coupled receptors that are targets of the catecholamines, especially norepinephrine and epinephrine (Dokur et al. (2004) J Neuroimmunol 5:148-57; Page et al. (2008) J Neuroimmunol 193:113-9). Methyllycaconitine (MLA) is a selective antagonist of α7 nicotine acetylcholine receptor (α7 nAChR; Wu et al. (2011) Clin Cancer Res 17:3533-41). By injecting MET and MLA i.p., the stimulation of sympathetic nerves and inhibition of parasympathetic nerves was mimicked. Naloxone, an opiate receptor antagonist, was used to test whether BEP neuronal effects is acted via opiodergic receptor (Boyadjieva et al. (2006) Alcohol Clin Exp Res 30:1761-7). Forty-eight BEP neuron-transplanted Fischer rats and 48 control rats were divided into 8 groups and treated with saline, naloxone (10 mg/kg body weight), MET (0.8 mg/kg body weight), or MLA (2.5 mg/kg body weight) for 8 days (the doses used for these drugs are recognized as effective biological doses). A day after the first injection of these agents, animals were inoculated with MADB106 cells (100,000/0.2 mL/rat). Twenty-four hours after tumor cell inoculation, blood was collected by orbital puncture. Plasma was collected, and peripheral blood mononuclear cells (PBMC) were separated for migration assay and NK cytolytic assay. These animals continued receiving the blocker treatments for 7 days. After 4 weeks they were sacrificed, their lungs were fixed in formalin and processed to H&E staining for determination of cancer pathology. Brain tissues were processed for verification of the site and viability of BEP cell transplantation.

Assay [3] can be described thus: Plasma corticosterone after nanosphere implantation. The settings on record: naloxone 1 mg/kg i.p., 12 hours. As for the experimental part:
2 weeks later, half of the animals were i.p. injected with naloxone (1 mg/kg body weight), which is aμ-opioid receptor antagonist, specifically blocking the effect of β-EP. 12 hours later, animals were anesthetized with Nembutal, and blood was drawn from jugular vein. Plasma corticosterone level was measured with ELISA.
2 months later, animals were anesthetized, and 1 ml of blood was drawn from jugular vein.

Setting [4] is: 24 hours after MADB106 inoculation, naloxone 10, MP/MET 0.8, MLA 2.5 mg/kg or saline.

Entries after “also recorded” stand apart in the source; their conditions may differ.

For the molecule `C=CCN1CC[C@]23c4c5ccc(O)c4O[C@H]2C(=O)CC[C@@]3(O)[C@H]1C5` [naloxone], the “effect on nanosphere-reduced lung tumor retention” value with MADB106 cells [1] is reported as “reversed the effect of nanosphere”. Further, in the assay with MADB106 cells [2] (setting [4]), the “PBMC NK cell activity” value is “moderate or strong inhibitory effect” and the macrophage migration activity result is “moderate or strong inhibitory effect”. In the assay on MADB106 cells [2] (β-EP transplanted Fischer rats, naloxone 10, MP/MET 0.8, MLA 2.5 mg/kg for 8 days), the “effect on β-EP elimination of tumor cell lung retention” value is listed as “stopped the effect of β-EP; also recorded: prevented, at various degrees”. In addition, the “effect on nanosphere-lowered plasma corticosterone” value in assay [3] is reported as “blocked the effect of nanospheres”.
